# Experimental data: patent US20080200405A1, “Drug Resistance Reversal In Neoplastic Disease” (priority 2007, published 2008)
# Where a name gives a salt, the structure may show the parent alone. Read-outs that look alike come from different tables or passages of the source.
# How the values were obtained:
# [1] = tested on: bFGF-induced angiogenesis in the CAM model; experiment: bFGF (FGF2)-stimulated CAM model; type: in vivo, chicken; conditions: bFGF/FGF2 1 ug, 30 ug injected; for inhibition in vivo at 0.03 mg: Gallus gallus, read-out: % Inhibition ± SEM
# Description: In vivo neovascularization was examined by the method previously described by Auerbach et al. (J. Dev. Biol. 41:391-394 (1974)). Ten-day old chicken embryos were purchased from Spafas, Inc. (Preston, Conn.) and were incubated at 37° C. with 55% relative humidity. In the dark, with the aid of a candling lamp, a small hole was punctured in the shell concealing the air sac with a hypodermic needle. A second hole was punctured in the shell on the broadside of the egg directly over an […] portion of the embryonic membrane, as observed during candling. An artificial air sac was created beneath the second hole by applying gentle vacuum to the first hole using a small rubber squeeze bulb. The vacuum caused the chorioallantoic membrane (CAM) to separate from the shell.
# For inducing angiogenesis, sterile filter disks were saturated with bFGF (1 μg/ml) (Life Technologies, Gaithersburg, Md.) or other pro-angiogenesis factors and control disks were saturated with PBS without Calcium and Magnesium. Control disks were saturated with PBS without Calcium and Magnesium.
# After 24-48 hr, 10-25 ul of test agent was injected intravenously or added topically into the CAM membrane. Eight-Ten eggs/treatment group were used.
# The number of vessel branch points contained in a circular region equal to the area of a filter disk was counted for each section. Percent inhibition data are expressed as the quotient of the experimental value minus the negative control value divided by the difference between the positive control value and the negative control value. One image was counted in each CAM preparation, and findings from eight CAM preparations were analyzed for each treatment condition. In addition, each experiment was performed three times. The resulting angiogenesis index is the mean ±SEM (Standard Error of Measurement) of new branch points in each set of treatment. Statistical analysis of blood vessel branching patterns are performed by 1-way analysis of variance (ANOVA) comparing experimental with corresponding control groups. Statistical significance differences are assessed at P value of <0.05.
# The CAM model protocol was modified to include stimulus with bFGF. The effect of injected OT 551 was assayed.
# TP-H was applied to the CAM model study to determine its respective anti-angiogenesis effects according to the materials and methods provided in Example 1. Basic Fibroblast Growth Factor (bFGF) was used to induce angiogenesis in the CAM model.
# Compounds were introduced via injection to the CAM model study to determine its respective anti-angiogenesis effects according to the materials and methods provided in Example 1. bFGF was used to induce angiogenesis in the CAM model.
# Lipid peroxidation = Lipid peroxidation inhibition (method of Ohkawa); type: biochemical
# [2] = tested on: Doxorubicin resistant SaOS2 cells; experiment: Cancer cell viability (MTT) in the presence or absence of doxorubicin; type: cell-based, human; conditions: compound 50 ug/mL, 3 days
# TNFα = experiment: Measurement of LPS Induced-TNFα in THP-1 Cells; type: cell-based, human; conditions: Homo sapiens
# Description: The lipid peroxidation assay method of Ohkawa, H.; Ohishi, N.; Yaki, K. Anal. Biochem. 1979, 95, 351 was used to evaluate […]. […] […] Cells were collected and spun at 1500 g for 10 minutes. Supernatant was collected and analyzed for TNFα.
# Mean Percent Inhibition of TNF-alpha by compounds of the present invention is set forth in Table B. TNF-alpha inhibition data is set forth in Table B-1. OT-551 was used in both native form and in the form of nanoparticles. […] Other nitrogenous heterocyclic species of the invention are expected to show similar improvement in efficacy when disposed in nanoparticulate form.
# [3] = THP-1, compound 10 uM, 5 ng/mL LPS, read-out: Mean Percent Inhibition of TNF-alpha using 5 ng/mL LPS
SMILES,"IC50 (TNFα; THP-1, read-out: TNFalpha IC50) [µM]",melting point,inhibition in vivo at 0.03 mg [1] [%],Branch pts ± SEM [1],% Lipid Peroxidation inhibition (at 1 uM) (Lipid peroxidation) [%],"Lipid Peroxidation Inhibition, % Inhibition (Lipid peroxidation; 10 uM) [%]","Mean OD (×10^−3), MTT viability ([2]; Dox. 10^−6 M (+))","Mean OD (×10^−3), MTT viability ([2]; absence of Dox. (−))",inhibition at 10 µM (TNFα; [3]) [%],"inhibition at 10 µM (TNFα; THP-1, read-out: Mean Percent Inhibition of TNF-alpha using 5 ng/mL LPS) [%]","IC50 (TNFα; THP-1, read-out: TNFalpha IC50 (uM)) [µM]","Lipid Peroxidation Inhibition, % Inhibition (Lipid peroxidation; 100 uM) [%]"
"COC1CC(C)(C)N(O)C(C)(C)C1.Cl [Compound 1, 1-hydroxy-4-methoxy-2,2,6,6-tetramethylpiperidine hydrogen chloride]",16.8,–,89.9 ± 18,74 ± 8.6,74.1,90.8,246.50 ×10^−3,524.75 ×10^−3,50 ± 9,–,–,–
"CC1(C)CC(N2CCOCC2)CC(C)(C)N1O.Cl [Compound 3, 4-(2,2,6,6-tetramethylpiperidin-1-hydroxy-4-yl)morpholine hydrogen chloride]",11.6,–,54.7 ± 7.9,95.1 ± 5.6,–,77.8,289.50 ×10^−3,640.25 ×10^−3,60 ± 2,–,–,–
"CC1(C)CC(=O)CC(C)(C)N1O [Compound 5, 1-Hydroxy-2,2,6,6-tetramethyl-piperidin-4-one]",–,–,26.5 ± 7.9,86.1 ± 9.8,71.0,86.3,245.50 ×10^−3,556.50 ×10^−3,–,66 ± 7,22.2,–
"CC1(C)CC(O)C(C)(C)N1O (stereo not drawn) [Compound 7, 2,2,5,5-Tetramethyl-pyrrolidine-1,3-diol]",44.9,–,124 ± 8.4,40.8 ± 9.7,–,82.9,241.25 ×10^−3,540.25 ×10^−3,69 ± 2,–,–,–
"CC1(C)C=C(CO)C(C)(C)N1O [Compound 8, 2,5-dihydro-2,2,5,5-tetramethyl-1-hydroxyl-1H-pyrrol-3-yl)methanol hydrogen chloride]",20.3,–,88.1 ± 7.6,57.8 ± 8.02,–,–,197.25 ×10^−3,392.50 ×10^−3,55 ± 6,–,–,–
"CC1(C)CC(O)C(Br)C(C)(C)N1O (stereo not drawn) [Compound 9, 3-Bromo-2,2,6,6-tetramethyl-piperidine-1,4-diol]",18.9,138.5 °C (dec.),82.2 ± 6.7,58.4 ± 6.52,–,–,234.75 ×10^−3,509.00 ×10^−3,48 ± 14,–,–,–
"CC1(C)CC(NS(C)(=O)=O)CC(C)(C)N1O [Compound 10, 1-hydroxy-4-methanesulfonamido-2,2,6,6-tetramethylpiperidine]",≥ 100,–,78.2 ± 9.9,60.4 ± 5.0,–,85.8,250.00 ×10^−3,456.00 ×10^−3,–,–,–,–
"CC(C)(C)/[N+]([O-])=C/c1ccccc1 [Compound 17, α-phenyl-t-butyl nitrone, reference compound]",–,–,–,–,–,0.4,–,–,–,–,–,–
"CC1(C)CC(C(N)=O)C(C)(C)N1O (stereo not drawn) [Compound 24, 1-hydroxy-2,2,5,5-tetramethylpyrrolidine-3-carboxamide]",≥ 100,–,–,–,37.0,–,362.00 ×10^−3,1166.50 ×10^−3,–,–,–,–
CC1(C)C=C(CO)CC(C)(C)N1O.Cl [Compound 25],–,–,–,–,42.0,–,325.00 ×10^−3,1137.50 ×10^−3,–,–,–,–
"Cc1cc(O)c(O)cc1C(=O)NC1CC(C)(C)N(O)C(C)(C)C1.Cl [Compound 27, 4,5-dihydroxy-2-methyl-N-(1-hydroxy-2,2,6,6-tetramethylpiperidin-4-yl)benzamide hydrogen chloride]",≥ 100,–,–,–,53.4,–,403.75 ×10^−3,1038.33 ×10^−3,–,–,–,–
"CC(C)(C)c1cc(NC(=O)C2CC(C)(C)N(O)C(C)(C)C2)cc(C(C)(C)C)c1O.Cl [Compound 29, N-(3,5-di-tert-butyl-4-hydroxyphenyl)-1-hydroxy-2,2,6,6-tetramethylpiperidine-4-carboxamide hydrogen chloride]",45.5,–,–,–,92.3,–,105.75 ×10^−3,1328.00 ×10^−3,–,–,–,–
CC1(C)CC(CO)C(C)(C)N1O.Cl (stereo not drawn) [Compound 33],–,–,–,–,54.9,–,300.00 ×10^−3,1237.50 ×10^−3,–,–,–,–
"O=C(O)c1cc(C(=O)O)c2c(n1)C(=O)C(=O)c1cc(C(=O)O)[nH]c1-2 [PQQ, pyrroloquinoline quinone, reference compound]",–,–,–,–,–,–,–,–,–,–,–,93.7

# Now from value to compound, other results behind:
"IC50 (TNFα; THP-1, read-out: TNFalpha IC50) [µM]",melting point,SMILES,inhibition in vivo at 0.03 mg [1] [%],Branch pts ± SEM [1],% Lipid Peroxidation inhibition (at 1 uM) (Lipid peroxidation) [%],"Lipid Peroxidation Inhibition, % Inhibition (Lipid peroxidation; 10 uM) [%]","Mean OD (×10^−3), MTT viability ([2]; Dox. 10^−6 M (+))","Mean OD (×10^−3), MTT viability ([2]; absence of Dox. (−))",inhibition at 10 µM (TNFα; [3]) [%],"inhibition at 10 µM (TNFα; THP-1, read-out: Mean Percent Inhibition of TNF-alpha using 5 ng/mL LPS) [%]","IC50 (TNFα; THP-1, read-out: TNFalpha IC50 (uM)) [µM]","Lipid Peroxidation Inhibition, % Inhibition (Lipid peroxidation; 100 uM) [%]"
3.8,–,"CC1(C)C=CCC(C)(C)N1O.Cl [Compound 35, 1-hydroxy-1,2,3,6-tetrahydro-2,2,6,6-tetramethylpyridine hydrogen chloride]",–,–,64.4,–,352.75 ×10^−3,1128.00 ×10^−3,–,–,–,–
≥ 100,–,"CCOCC(C)(C)N(O)C(C)(C)COCC [Compound 40, N-Hydroxyl-N,N-bis(1-ethoxy-2-methylpropan-2-yl)amine hydrochloride]",–,–,46.8,–,338.75 ×10^−3,1177.25 ×10^−3,–,–,–,–
1,201.7 °C (dec.),"CC1(C)CC(O)(c2ccccc2)CC(C)(C)N1O.Cl [Compound 42, 1,4-Dihydroxy-4-phenyl-2,2,6,6-tetramethylpiperidine hydrochloride]",–,–,83.8,–,311.00 ×10^−3,1068.67 ×10^−3,–,–,–,–
≥ 100,181.5 °C (dec.),"CC1(C)CC(OCc2ccccc2)CC(C)(C)N1O.Cl [Compound 43, 4-Benzyloxy-1-hydroxy-2,2,6,6-tetramethylpiperidine hydrochloride]",–,–,88.5,–,324.67 ×10^−3,1159.00 ×10^−3,–,–,–,–
30,–,"CC1(C)CC(Oc2nsnc2C#N)CC(C)(C)N1O [Compound 45, hydrochloride]",–,–,91.5,–,276.50 ×10^−3,1063.33 ×10^−3,–,–,–,–
1,–,"COc1ccc(C2=C(c3cc(OC)c(OC)c(OC)c3)C(C)(C)N(O)C2(C)C)cc1C=O.Cl [Compound 46, 5-(2,5,-dihydro-4-(3,4,5-trimethoxyphenyl)-1-hydroxy-2,2,5,5-tetramethyl-1H-pyrrol-3-yl)-2-methoxybenzaldehyde hydrochloride]",–,–,80.1,–,32.75 ×10^−3,79.00 ×10^−3,–,–,–,–
≥ 100,220 °C (dec.),"CC1(C)CC(O)(c2ccc(F)cc2)CC(C)(C)N1O.Cl [Compound 57, 4-(4-Fluorophenyl)-1-hydroxyl-2,2,6,6-tetramethylpiperidin-4-ol hydrochloride]",–,–,–,–,426.25 ×10^−3,1078.50 ×10^−3,–,–,–,–
